Like-named read-outs stand apart in the source and are kept apart here.

Holding throughout (type): biochemical
For experiment [1], the target named is CDK4/CCND3 (Homo sapiens, UniProt P11802). Kind of experiment: CDK4 homogeneous time-resolved fluorescence (HTRF) kinase assay. The conditions noted are these: CDK4/CCND. A digest of the protocol:
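IC50s derive from Lance 665 nm or 665/615 nm signals in 11-point, half-log dose series (top 10 μM, 1% DMSO). The enzyme, 1.5 nM CDK4/CCND3, phosphorylates 50 nM ULight-4E-BP1 peptide with 1 mM ATP over 60 min at 23 °C.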
For orientation: In TR-FRET formats the signal depends on donor and acceptor labels being close together.

In experiment [2] the target is CDK1/CCNB1 (Homo sapiens, UniProt P06493). In words: CDK1 homogeneous time-resolved fluorescence (HTRF) kinase assay. To be noted: CDK1/CCNB. A digest of the protocol: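 0.5 nM CDK1/CCNB1 was preincubated 20 min at 23 °C with compound in HEPES pH-unspecified buffer (MgCl2, EGTA, DTT, Tween 20), then reacted 60 min with 1 mM ATP and 50 nM ULight-4E-BP1 (Thr37/46) peptide. EDTA-stopped reactions were detected with 2 nM Eu-anti-phospho antibody; IC50 from 11-point half-log titrations.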
CDK1/CCNB1, sequence (P06493 whole entry): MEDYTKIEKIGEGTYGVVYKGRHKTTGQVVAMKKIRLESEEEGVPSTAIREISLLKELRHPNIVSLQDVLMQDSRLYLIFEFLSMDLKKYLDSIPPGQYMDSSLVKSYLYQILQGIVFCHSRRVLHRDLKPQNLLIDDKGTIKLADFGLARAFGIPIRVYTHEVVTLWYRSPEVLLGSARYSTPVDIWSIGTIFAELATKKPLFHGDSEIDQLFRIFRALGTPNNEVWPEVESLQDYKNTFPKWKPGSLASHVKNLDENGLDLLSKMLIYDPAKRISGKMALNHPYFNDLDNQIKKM
CDK1/CCNB1, sequence (P14635 whole entry partner): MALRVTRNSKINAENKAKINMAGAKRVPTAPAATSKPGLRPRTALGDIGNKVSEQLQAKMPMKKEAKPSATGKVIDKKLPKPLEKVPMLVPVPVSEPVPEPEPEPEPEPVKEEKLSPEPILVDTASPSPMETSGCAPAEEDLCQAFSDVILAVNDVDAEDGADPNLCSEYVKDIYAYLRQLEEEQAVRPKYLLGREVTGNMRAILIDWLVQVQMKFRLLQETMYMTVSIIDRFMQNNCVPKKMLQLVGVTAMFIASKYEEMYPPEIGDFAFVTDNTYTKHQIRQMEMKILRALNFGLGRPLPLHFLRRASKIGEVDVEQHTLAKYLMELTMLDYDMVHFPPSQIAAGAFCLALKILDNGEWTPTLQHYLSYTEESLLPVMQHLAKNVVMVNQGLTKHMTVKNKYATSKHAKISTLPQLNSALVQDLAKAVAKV

The target in experiment [3] is CDK6/CCND1 (Homo sapiens, UniProt Q00534). In words: CDK6 homogeneous time-resolved fluorescence (HTRF) kinase assay. To be noted: CDK6/CCND. The essentials: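 Assay conditions: HEPES buffer containing 10 mM MgCl2, 1 mM EGTA, 2 mM DTT, 0.01% Tween 20; 1 nM CDK6/CCND1, 50 nM peptide substrate, 1 mM ATP. Detection after 60 min reaction used 2 nM europium antibody with 340 nm excitation. Potency fitted from half-log series, 11 points.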
CDK6/CCND1, sequence (Q00534 whole entry): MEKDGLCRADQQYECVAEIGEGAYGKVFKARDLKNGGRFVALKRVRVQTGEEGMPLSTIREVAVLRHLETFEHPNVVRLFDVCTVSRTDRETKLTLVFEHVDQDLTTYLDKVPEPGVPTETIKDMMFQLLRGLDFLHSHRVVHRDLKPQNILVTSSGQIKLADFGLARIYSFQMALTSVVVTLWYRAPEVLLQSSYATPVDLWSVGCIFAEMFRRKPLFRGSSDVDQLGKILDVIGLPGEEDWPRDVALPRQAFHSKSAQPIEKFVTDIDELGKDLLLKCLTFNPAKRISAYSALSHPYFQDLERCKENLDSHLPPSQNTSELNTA
CDK6/CCND1, sequence (P24385 whole entry partner): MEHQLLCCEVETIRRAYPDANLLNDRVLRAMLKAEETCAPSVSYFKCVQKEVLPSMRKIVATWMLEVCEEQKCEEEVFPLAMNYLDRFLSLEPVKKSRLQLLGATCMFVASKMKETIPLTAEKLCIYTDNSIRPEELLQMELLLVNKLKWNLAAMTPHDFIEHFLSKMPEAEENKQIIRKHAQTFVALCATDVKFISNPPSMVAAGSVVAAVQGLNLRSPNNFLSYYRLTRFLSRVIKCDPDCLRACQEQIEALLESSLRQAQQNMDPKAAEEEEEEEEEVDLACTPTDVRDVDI

In experiment [4] the target is CDK2/CCNE1 (Homo sapiens, UniProt P24941). In words: CDK2 homogeneous time-resolved fluorescence (HTRF) kinase assay. To be noted: CDK2/CCNE. A digest of the protocol:
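An HTRF format measures CDK2/CCNE1 (3 nM) phosphorylating a 4E-BP1 Thr37/46 peptide at high (1 mM) ATP. Reactions run one hour at 23 °C, then EDTA-quenched and probed with Eu-labelled phospho-specific antibody.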

Setting [5] is: x = IC50 >250 nM, read-out: CDK4/CCND IC50 (>250 nM column).
Where [6] appears, read: x = IC50 >250 nM, read-out: CDK1/CCNB IC50 (>250 nM column).
Setting [7] is: x = IC50 >250 nM, read-out: CDK6/CCND IC50 (>250 nM column).
Setting [8] is: x = IC50 25-250 nM, read-out: CDK2/CCNE IC50 (25-250 nM).
The mark [9] stands for this setting: 25-250 nM, read-out: CDK4/CCND IC50, 25-250 nM.
Setting [10] is: >250 nM, read-out: CDK1/CCNB IC50 >250 nM.
[11] abbreviates: >250 nM, 1 mM ATP, read-out: CDK6/CCND IC50, >250 nM.
Where [12] appears, read: <25 nM, read-out: CDK2/CCNE IC50, <25 nM.
Setting [13] is: 25-250 nM, 1 mM ATP, read-out: CDK6/CCND IC50, 25-250 nM.
[14] abbreviates: >250 nM, read-out: CDK4/CCND IC50, >250 nM.
Setting [15] is: 25-250 nM, read-out: CDK2/CCNE IC50, 25-250 nM.

CDK4/CCND3, sequence (P11802 whole entry): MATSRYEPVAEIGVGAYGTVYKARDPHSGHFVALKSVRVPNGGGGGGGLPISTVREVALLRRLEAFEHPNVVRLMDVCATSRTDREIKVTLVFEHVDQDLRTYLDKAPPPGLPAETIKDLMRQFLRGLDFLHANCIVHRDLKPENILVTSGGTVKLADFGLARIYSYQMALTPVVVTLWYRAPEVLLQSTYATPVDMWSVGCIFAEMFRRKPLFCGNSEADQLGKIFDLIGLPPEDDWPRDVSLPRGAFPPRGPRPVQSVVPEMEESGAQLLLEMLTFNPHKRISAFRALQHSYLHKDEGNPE
CDK4/CCND3, sequence (P30281 whole entry partner): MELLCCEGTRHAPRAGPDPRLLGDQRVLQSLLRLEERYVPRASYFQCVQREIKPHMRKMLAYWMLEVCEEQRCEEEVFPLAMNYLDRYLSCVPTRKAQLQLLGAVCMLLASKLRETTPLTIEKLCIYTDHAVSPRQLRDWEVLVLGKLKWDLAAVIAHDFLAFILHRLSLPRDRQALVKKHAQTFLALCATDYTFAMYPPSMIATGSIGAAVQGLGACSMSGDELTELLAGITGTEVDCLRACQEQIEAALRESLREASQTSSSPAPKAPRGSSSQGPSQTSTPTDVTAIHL

Consider `CS(=O)(=O)c1ccc(Nc2cc3c(C#Cc4ccc(CN5CCOCC5)cc4)nccc3cn2)cc1` [Example 666, N-(4-(methylsulfonyl)phenyl)-5-((4-(morpholinomethyl)phenyl)ethynyl)-2,6-naphthyridin-3-amine], for which the IC50 is greater than 250 nM in experiment [1] (setting [5]); greater than 250 nM in experiment [2] (setting [6]); greater than 250 nM in experiment [3] (setting [7]); less than 25 nM in experiment [4] (x = IC50 <25 nM, read-out: CDK2/CCNE IC50 (<25 nM)).
`Cc1c(-c2nccc3cnc(Nc4ccc(S(C)(=O)=O)cc4)cc23)ccc2c1cnn2C(=O)NC(C)(C)C` [Example 668, N-(tert-butyl)-4-methyl-5-(7-((4-(methylsulfonyl)phenyl)amino)-2,6-naphthyridin-1-yl)-1H-indazole-1-carboxamide]: the IC50 was greater than 250 nM in experiment [1] (setting [5]), greater than 250 nM in experiment [2] (setting [6]), greater than 250 nM in experiment [3] (setting [7]) and 25 to 250 nM in experiment [4] (setting [8]).
For the molecule `C/C=C/S(=O)(=O)c1ccc(Nc2cc3c(N4CCC(C#N)CC4)nccc3cn2)cc1` [Example 670, (E)-1-(7-((4-(prop-1-en-1-ylsulfonyl)phenyl)amino)-2,6-naphthyridin-1-yl)piperidine-4-carbonitrile], the IC50 in experiment [1] (setting [5]) is greater than 250 nM; in experiment [2] (setting [6]) it was greater than 250 nM; in experiment [3] (setting [7]), greater than 250 nM; in experiment [4] (setting [8]), 25 to 250 nM.
In the case of `CC(=O)NS(=O)(=O)c1ccc(Nc2cc3c(-c4ccc5c(cnn5CC(O)(C(F)(F)F)C(F)(F)F)c4C)nccc3cn2)cc1` [Example 678, N-((4-((5-(4-methyl-1-(3,3,3-trifluoro-2-hydroxy-2-(trifluoromethyl)propyl)-1H-indazol-5-yl)-2,6-naphthyridin-3-yl)amino)phenyl)sulfonyl)acetamide], the IC50 in experiment [1] (setting [5]) is greater than 250 nM; in experiment [2] (setting [6]) it was greater than 250 nM; in experiment [3] (setting [7]), greater than 250 nM; in experiment [4] (setting [8]), 25 to 250 nM.
For the molecule `CCN[S@](=N)(=O)c1ccc(Nc2cc3c(-c4ccc5c(cnn5CC(O)(C(F)(F)F)C(F)(F)F)c4C)nccc3cn2)cc1` [Example 682, (S)-N-ethyl-4-((5-(4-methyl-1-(3,3,3-trifluoro-2-hydroxy-2-(trifluoromethyl)propyl)-1H-indazol-5-yl)-2,6-naphthyridin-3-yl)amino)benzenesulfonimidamide], the IC50 is 25 to 250 nM in experiment [1] (setting [9]), greater than 250 nM in experiment [2] (setting [10]), greater than 250 nM in experiment [3] (setting [11]) and less than 25 nM in experiment [4] (setting [12]).
Regarding `N=S(=O)(c1ccc(Nc2cc3c(C#Cc4cnc5c(c4)NC(=O)CO5)nccc3cn2)cc1)C1CCC1` (stereo not shown) [Example 686, 7-((7-((4-(cyclobutanesulfonimidoyl)phenyl)amino)-2,6-naphthyridin-1-yl)ethynyl)-1H-pyrido[2,3-b][1,4]oxazin-2(3H)-one], the IC50 was 25 to 250 nM in experiment [1] (setting [9]), greater than 250 nM in experiment [2] (setting [10]), 25 to 250 nM in experiment [3] (setting [13]) and less than 25 nM in experiment [4] (setting [12]).
Regarding `CC1(C)C(=O)Nc2cc(C#Cc3nccc4cnc(Nc5ccc([S@@](=N)(=O)NC6CCC6)cc5)cc34)ccc21` [Example 687, (S)-N-cyclobutyl-4-((5-((3,3-dimethyl-2-oxoindolin-6-yl)ethynyl)-2,6-naphthyridin-3-yl)amino)benzenesulfonimidamide], the IC50 in experiment [1] (setting [9]) is 25 to 250 nM; in experiment [2] (25-250 nM, read-out: CDK1/CCNB IC50, 25-250 nM) it was 25 to 250 nM; in experiment [3] (setting [13]), 25 to 250 nM; in experiment [4] (setting [12]), less than 25 nM.
As to `CNS(=O)(=O)c1ccc(Nc2cc3c(-c4ccc5c(cnn5CC(O)(C(F)(F)F)C(F)(F)F)c4C)nccc3cn2)cc1` [Example 696, N-methyl-4-((5-(4-methyl-1-(3,3,3-trifluoro-2-hydroxy-2-(trifluoromethyl)propyl)-1H-indazol-5-yl)-2,6-naphthyridin-3-yl)amino)benzenesulfonamide], the IC50 in experiment [1] (setting [14]) was greater than 250 nM; in experiment [2] (setting [10]) it was greater than 250 nM; in experiment [3] (setting [11]), greater than 250 nM; in experiment [4] (setting [12]), less than 25 nM.
As for `Cc1c(-c2nccc3cnc(Nc4ccc(S(=O)(=O)N(c5ncccn5)C5CC5)cc4)cc23)ccc2c1cnn2CC(O)(C(F)(F)F)C(F)(F)F` [Example 698, N-cyclopropyl-4-((5-(4-methyl-1-(3,3,3-trifluoro-2-hydroxy-2-(trifluoromethyl)propyl)-1H-indazol-5-yl)-2,6-naphthyridin-3-yl)amino)-N-(pyrimidin-2-yl)benzenesulfonamide], the IC50 in experiment [1] (setting [14]) was greater than 250 nM; in experiment [2] (setting [10]) it was greater than 250 nM; in experiment [3] (setting [11]), greater than 250 nM; in experiment [4] (>250 nM, read-out: CDK2/CCNE IC50, >250 nM), greater than 250 nM.
`CS(=O)(=O)c1ccc(Nc2cc3c(C#CC4(O)CCCNC4)nccc3cn2)cc1` (stereo not shown) [Example 699, 3-((7-((4-(methylsulfonyl)phenyl)amino)-2,6-naphthyridin-1-yl)ethynyl)piperidin-3-ol]: the IC50 in experiment [1] (setting [9]) is 25 to 250 nM; in experiment [2] (setting [10]), greater than 250 nM; in experiment [3] (setting [11]) it was greater than 250 nM; in experiment [4] (setting [12]) it was less than 25 nM.
Take `COc1cnc(NS(=O)(=O)c2ccc(Nc3cc4c(-c5ccc6c(cnn6CC(O)(C(F)(F)F)C(F)(F)F)c5C)nccc4cn3)cc2)cc1N1CCOCC1` [Example 700, N-(5-methoxy-4-morpholinopyridin-2-yl)-4-((5-(4-methyl-1-(3,3,3-trifluoro-2-hydroxy-2-(trifluoromethyl)propyl)-1H-indazol-5-yl)-2,6-naphthyridin-3-yl)amino)benzenesulfonamide]: the IC50 in experiment [1] (setting [14]) is greater than 250 nM; in experiment [2] (setting [10]), greater than 250 nM; in experiment [3] (setting [11]), greater than 250 nM; in experiment [4] (setting [12]) it was less than 25 nM.
With `Cc1c(-c2nccc3cnc(Nc4ccc(NS(=O)(=O)c5ncccn5)cc4)cc23)ccc2c1cnn2CC(C)(C)O` [Example 705, N-(4-((5-(1-(2-hydroxy-2-methylpropyl)-4-methyl-1H-indazol-5-yl)-2,6-naphthyridin-3-yl)amino)phenyl)pyrimidine-2-sulfonamide], the IC50 in experiment [1] (setting [9]) is 25 to 250 nM; in experiment [2] (setting [10]), greater than 250 nM; in experiment [3] (setting [13]), 25 to 250 nM; in experiment [4] (setting [12]), less than 25 nM.
On to `Cc1ccc(NS(=O)(=O)c2ccc(Nc3cc4c(-c5ccc6c(cnn6CC(O)(C(F)(F)F)C(F)(F)F)c5C)nccc4cn3)cc2)cc1C(C)(C)O` [Example 708, N-(3-(2-hydroxypropan-2-yl)-4-methylphenyl)-4-((5-(4-methyl-1-(3,3,3-trifluoro-2-hydroxy-2-(trifluoromethyl)propyl)-1H-indazol-5-yl)-2,6-naphthyridin-3-yl)amino)benzenesulfonamide], for which the IC50 is greater than 250 nM in experiment [1] (setting [14]), greater than 250 nM in experiment [2] (setting [10]), greater than 250 nM in experiment [3] (setting [11]) and 25 to 250 nM in experiment [4] (setting [15]).
Consider `Cc1c(-c2nccc3cnc(Nc4ccc(S(=O)(=O)Nc5ccccn5)cc4)cc23)ccc2c1cnn2CC(O)(C(F)(F)F)C(F)(F)F` [Example 716, 4-((5-(4-methyl-1-(3,3,3-trifluoro-2-hydroxy-2-(trifluoromethyl)propyl)-1H-indazol-5-yl)-2,6-naphthyridin-3-yl)amino)-N-(pyridin-2-yl)benzenesulfonamide], for which the IC50 in experiment [1] (setting [14]) is greater than 250 nM; in experiment [2] (setting [10]), greater than 250 nM; in experiment [3] (setting [11]), greater than 250 nM; in experiment [4] (setting [12]), less than 25 nM.
`CC[C@@H](C)NS(=O)(=O)c1ccc(Nc2cc3c(-c4ccc5c(cnn5CC(C)(C)O)c4C)nccc3cn2)cc1` [Example 721, (R)-N-(sec-butyl)-4-((5-(1-(2-hydroxy-2-methylpropyl)-4-methyl-1H-indazol-5-yl)-2,6-naphthyridin-3-yl)amino)benzenesulfonamide]: the IC50 in experiment [1] (setting [14]) is greater than 250 nM; in experiment [2] (setting [10]), greater than 250 nM; in experiment [3] (setting [11]) it was greater than 250 nM; in experiment [4] (setting [12]), less than 25 nM.
Take `CN1CCN(c2cc(Nc3cc4c(C#Cc5ccc(=O)[nH]n5)nccc4cn3)cnc2O)CC1` [Example 723, 6-((7-((6-hydroxy-5-(4-methylpiperazin-1-yl)pyridin-3-yl)amino)-2,6-naphthyridin-1-yl)ethynyl)pyridazin-3(2H)-one]: the IC50 in experiment [1] (setting [14]) is greater than 250 nM; in experiment [2] (setting [10]) it was greater than 250 nM; in experiment [3] (setting [11]), greater than 250 nM; in experiment [4] (setting [15]), 25 to 250 nM.
